In patent publication US9815796B2 (Merck Sharp & Dohme Corp., priority 2013, dated 2017):
Like-named read-outs stand apart in the source and are kept apart here.

Legend:
Rhesus PDE2A3 = Rhesus PDE2A3 (Macaca mulatta, UniProt B3VTJ2); experiment: PDE2 fluorescence polarization (IMAP FP) inhibition assay, rhesus enzyme; format: biochemical, rhesus macaque
Outline: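 Rhesus PDE2A3 came from lysate of transiently transfected AD293 cells, diluted to give 20% substrate conversion. Substrate was 50 nM FAM-cAMP with 1 uM cGMP activator in Tris pH 7.2/MgCl2 buffer, run 60 min at room temperature over 10-point 3-fold dilutions in 1% DMSO. Read-out was IMAP fluorescence polarization (mP) after ≥1 h binding.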

human PDE2A1 = human PDE2A1 (Homo sapiens (Human), UniProt O00408); experiment: IMAP FP PDE selectivity panel, human PDE2A1; format: biochemical
Outline: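 GST-tagged human PDE2A1 expressed in insect cells, run at room temperature for 60 min with 50 nM FAM-cAMP containing 1000 nM cGMP, pH 7.2 Tris/MgCl2 buffer. IMAP fluorescence polarization read after binding step.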

[1] = Rhesus PDE2, Lab A, read-out: Rhesus PDE2 Ki (nM) - Lab A
[2] = Human PDE2, Lab A, read-out: Human PDE2 Ki (nM) - Lab A
[3] = Rhesus PDE2, Lab B, read-out: Rhesus PDE2 Ki (nM) - Lab B
[4] = Human PDE2, Lab B, read-out: Human PDE2 Ki (nM) - Lab B

Sequence of Rhesus PDE2A3 (B3VTJ2 1-941): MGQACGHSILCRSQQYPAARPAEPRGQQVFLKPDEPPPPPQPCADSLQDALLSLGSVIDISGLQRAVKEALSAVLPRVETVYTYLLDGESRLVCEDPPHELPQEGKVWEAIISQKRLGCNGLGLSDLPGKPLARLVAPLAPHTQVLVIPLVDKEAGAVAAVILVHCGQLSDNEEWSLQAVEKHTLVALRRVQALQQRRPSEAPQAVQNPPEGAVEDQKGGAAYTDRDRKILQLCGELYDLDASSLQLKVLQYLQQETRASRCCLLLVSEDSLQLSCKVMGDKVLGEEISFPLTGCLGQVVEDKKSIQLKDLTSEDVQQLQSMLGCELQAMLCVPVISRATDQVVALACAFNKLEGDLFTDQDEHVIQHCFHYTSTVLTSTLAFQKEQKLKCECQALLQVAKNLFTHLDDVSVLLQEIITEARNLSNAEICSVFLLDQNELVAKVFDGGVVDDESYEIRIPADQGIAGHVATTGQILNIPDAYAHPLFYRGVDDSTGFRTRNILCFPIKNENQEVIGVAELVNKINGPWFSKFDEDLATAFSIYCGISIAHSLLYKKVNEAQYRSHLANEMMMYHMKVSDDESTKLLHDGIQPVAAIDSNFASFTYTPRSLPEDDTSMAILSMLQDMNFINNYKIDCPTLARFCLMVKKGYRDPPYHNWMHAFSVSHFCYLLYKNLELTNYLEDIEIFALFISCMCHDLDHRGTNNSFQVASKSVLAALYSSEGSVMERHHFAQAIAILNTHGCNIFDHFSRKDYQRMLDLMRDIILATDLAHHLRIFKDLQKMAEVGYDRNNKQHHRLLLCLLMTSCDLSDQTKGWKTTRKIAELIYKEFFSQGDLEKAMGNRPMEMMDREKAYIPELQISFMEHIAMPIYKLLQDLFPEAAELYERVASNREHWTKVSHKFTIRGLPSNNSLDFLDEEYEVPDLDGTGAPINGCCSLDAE
Sequence of human PDE2A1 (O00408 other isoform, or with tags, fused parts or gaps): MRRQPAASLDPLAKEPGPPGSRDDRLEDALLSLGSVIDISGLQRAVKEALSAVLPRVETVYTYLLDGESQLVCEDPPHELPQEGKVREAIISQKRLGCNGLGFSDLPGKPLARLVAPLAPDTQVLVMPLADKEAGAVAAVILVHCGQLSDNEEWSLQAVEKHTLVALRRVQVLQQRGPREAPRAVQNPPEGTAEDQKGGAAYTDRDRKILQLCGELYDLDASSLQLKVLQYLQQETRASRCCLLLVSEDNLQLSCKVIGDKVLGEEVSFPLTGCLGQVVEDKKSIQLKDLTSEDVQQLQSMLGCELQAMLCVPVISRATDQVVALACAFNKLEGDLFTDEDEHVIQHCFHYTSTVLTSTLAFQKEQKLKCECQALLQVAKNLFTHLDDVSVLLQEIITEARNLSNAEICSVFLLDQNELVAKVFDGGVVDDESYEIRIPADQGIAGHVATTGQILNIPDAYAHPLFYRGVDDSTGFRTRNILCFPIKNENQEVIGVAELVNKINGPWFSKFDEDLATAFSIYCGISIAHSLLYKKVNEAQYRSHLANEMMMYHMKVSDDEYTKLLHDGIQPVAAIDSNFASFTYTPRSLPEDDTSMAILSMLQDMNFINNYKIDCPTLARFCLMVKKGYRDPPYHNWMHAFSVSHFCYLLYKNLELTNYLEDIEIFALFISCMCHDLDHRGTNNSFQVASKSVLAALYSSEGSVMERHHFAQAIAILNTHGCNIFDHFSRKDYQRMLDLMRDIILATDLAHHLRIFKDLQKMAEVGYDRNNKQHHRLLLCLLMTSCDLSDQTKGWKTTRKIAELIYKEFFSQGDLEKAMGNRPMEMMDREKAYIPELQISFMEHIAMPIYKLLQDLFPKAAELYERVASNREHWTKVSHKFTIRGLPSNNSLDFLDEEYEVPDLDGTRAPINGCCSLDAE

Compound: Cc1nc(C(=O)N[C@H](C)c2ccc(SC(F)(F)F)cc2)cc(=O)[nH]1 [Example 66, 2-methyl-6-oxo-N-[(1R)-1-{4-[(trifluoromethyl)sulfanyl]phenyl}ethyl]-1,6-dihydropyrimidine-4-carboxamide]
- Ki (Rhesus PDE2A3; [1]): 11 nM
- Ki (human PDE2A1; [2]): 5.8 nM

Compound: CC(C)(C)[C@@H](NC(=O)c1cc(=O)[nH]c(-c2ccccc2)n1)c1ccc(OC(F)(F)F)cc1 [Example 462, N-{(1R)-2,2-dimethyl-1-[4-(trifluoromethoxy)phenyl]propyl}-6-oxo-2-phenyl-1,6-dihydropyrimidine-4-carboxamide]
- Ki (Rhesus PDE2A3; [3]): 1.4 nM
- Ki (human PDE2A1; [4]): 1.5 nM

Compound: CCc1ccc(C(C)NC(=O)c2cc(=O)[nH]c(C3CC3)n2)cc1 (stereo not shown) [Example 194, 2-cyclopropyl-N-[1-(4-ethylphenyl)ethyl]-6-oxo-1,6-dihydropyrimidine-4-carboxamide]
- Ki (Rhesus PDE2A3; [1]): 72 nM
- Ki (human PDE2A1; [2]): 28 nM

Compound: C[C@@H](NC(=O)c1cc(=O)[nH]c(-c2ccccc2)n1)c1ccc(S(F)(F)(F)(F)F)cc1 [Example 401, 6-oxo-N-{(1R)-1-[4-(pentafluoro-λ^6-sulfanyl)phenyl]ethyl}-2-phenyl-1,6-dihydropyrimidine-4-carboxamide]
- Ki (Rhesus PDE2A3; [3]): 5.2 nM
- Ki (human PDE2A1; [4]): 5.8 nM

Compound: CCc1ccc(C(C)NC(=O)c2cc(=O)[nH]c(C)n2)cc1 (stereo not shown) [Example 268, N-[1-(4-ethylphenyl)ethyl]-2-methyl-6-oxo-1,6-dihydropyrimidine-4-carboxamide]
- Ki (Rhesus PDE2A3; [1]): 146 nM
- Ki (human PDE2A1; [2]): 83 nM

Compound: Cc1nc(C(=O)NC(C)(c2ccc(S(F)(F)(F)(F)F)cc2)C(C)C)cc(=O)[nH]1 (racemic) [Example 619, N-{1,2-dimethyl-1-[4-(pentafluoro-λ^6-sulfanyl)phenyl]propyl}-2-methyl-6-oxo-1,6-dihydropyrimidine-4-carboxamide]
- Ki (Rhesus PDE2A3; [3]): 62 nM
- Ki (human PDE2A1; [4]): 67 nM

Compound: O=C(NC1(c2ccc(C(F)(F)F)c(F)c2)CC1)c1cc(=O)[nH]c(-c2ncccn2)n1 [Example 76, N-{1-[3-fluoro-4-(trifluoromethyl)phenyl]cyclopropyl}-6-oxo-1,6-dihydro-2,2′-bipyrimidine-4-carboxamide]
- Ki (Rhesus PDE2A3; [1]): 17 nM
- Ki (Rhesus PDE2A3; [3]): 18 nM
- Ki (human PDE2A1; [4]): 21 nM

Compound: COc1ccc(C(C)(C)c2nc(C(=O)N[C@@H](c3ccc(SC(F)(F)F)c(F)c3)C3CC3)cc(=O)[nH]2)cc1 [Example 497, N-[(R)-cyclopropyl{3-fluoro-4-[(trifluoromethyl)sulfanyl]phenyl}methyl]-2-[1-(4-methoxyphenyl)-1-methylethyl]-6-oxo-1,6-dihydropyrimidine-4-carboxamide]
- Ki (Rhesus PDE2A3; [3]): 80 nM
- Ki (human PDE2A1; [4]): 60 nM

Compound: COc1cc(C(C)NC(=O)c2cc(=O)[nH]c(-c3ccccc3)n2)cc(OC)c1OC (stereo not shown) [Example 351, 6-oxo-2-phenyl-N-[1-(3,4,5-trimethoxyphenyl)ethyl]-1,6-dihydropyrimidine-4-carboxamide]
- Ki (Rhesus PDE2A3; [1]): 124 nM
- Ki (Rhesus PDE2A3; [3]): 217 nM
- Ki (human PDE2A1; [4]): 224 nM

Compound: Cc1nc(C(=O)NC(CO)c2ccc(C(F)(F)F)cc2)cc(=O)[nH]1 (single isomer, unassigned) [Example 312, (R)- or (S)-N-{2-hydroxy-1-[4-(trifluoromethyl)phenyl]ethyl}-2-methyl-6-oxo-1,6-dihydropyrimidine-4-carboxamide]
- Ki (Rhesus PDE2A3; [1]): 71 nM
- Ki (human PDE2A1; [2]): 41 nM
- Ki (human PDE2A1; [4]): 52 nM

Compound: Cc1nc(C(=O)NC(c2ccc(C3(C)CC3)c(F)c2)C(C)(C)C)cc(=O)[nH]1 (single isomer, unassigned) [Example 711, (R)- or (S)-N-(1-(3-fluoro-4-(1-methylcyclopropyl)phenyl)-2,2-dimethylpropyl)-2-methyl-6-oxo-1,6-dihydropyrimidine-4-carboxamide]
- Ki (Rhesus PDE2A3; [3]): 5.1 nM
- Ki (human PDE2A1; [4]): 3.7 nM

Compound: Cc1nc(C(=O)N[C@@H](c2ccc(C(F)(F)F)cc2)C(C)(C)C)cc(=O)[nH]1 [Example 249, N-{(1R)-2,2-dimethyl-1-[4-(trifluoromethyl)phenyl]propyl}-2-methyl-6-oxo-1,6-dihydropyrimidine-4-carboxamide]
- Ki (Rhesus PDE2A3; [1]): 2 nM
- Ki (Rhesus PDE2A3; [3]): 4.3 nM
- Ki (human PDE2A1; [4]): 4.1 nM

Compound: CCc1nc(C(=O)NC2(c3ccc(OC(F)(F)F)c(F)c3)CC2)cc(=O)[nH]1 [Example 602]
- Ki (Rhesus PDE2A3; [3]): 5.2 nM
- Ki (human PDE2A1; [4]): 4.2 nM

Compound: Cc1nc(C(=O)NC(C#N)c2ccc(C(F)(F)F)cc2)cc(=O)[nH]1 (stereo not shown) [Example 33, N-{cyano[4-(trifluoromethyl)phenyl]methyl}-2-methyl-6-oxo-1,6-dihydropyrimidine-4-carboxamide]
- Ki (Rhesus PDE2A3; [1]): 802 nM
- Ki (human PDE2A1; [2]): 656 nM

Compound: COc1cc(CNC(=O)c2cc(=O)[nH]c(-c3ccccc3)n2)cc(OC)c1OC [Example 338, 6-oxo-2-phenyl-N-(3,4,5-trimethoxybenzyl)-1,6-dihydropyrimidine-4-carboxamide]
- Ki (Rhesus PDE2A3; [1]): 29 nM
- Ki (Rhesus PDE2A3; [3]): 71 nM
- Ki (human PDE2A1; [4]): 65 nM

Compound: COc1ccc(Cc2nc(C(=O)N[C@@H](c3ccc(S(F)(F)(F)(F)F)cc3)C(C)C)cc(=O)[nH]2)cc1 [Example 471, 2-(4-methoxybenzyl)-N-[(1R)-2-methyl-1-[4-(pentafluoro-λ^6-sulfanyl)phenyl]propyl}-6-oxo-1,6-dihydropyrimidine-4-carboxamide]
- Ki (Rhesus PDE2A3; [3]): 1.5 nM
- Ki (human PDE2A1; [4]): 1.5 nM

Compound: Cc1nc(C(=O)N[C@@H](c2ccc(OC(F)(F)F)cc2)C(C)(C)C)cc(=O)[nH]1 [Example 57, (R)-N-(2,2-dimethyl-1-(4-(trifluoromethoxy)phenyl)propyl)-2-methyl-6-oxo-1,6-dihydropyrimidine-4-carboxamide]
- Ki (Rhesus PDE2A3; [3]): 5.8 nM
- Ki (human PDE2A1; [4]): 3.9 nM

Compound: Cc1nc(C(=O)NC2(c3ccc(CC(F)(F)F)cc3)CC2)cc(=O)[nH]1 [Example 627, 2-methyl-6-oxo-N-{1-[4-(2,2,2-trifluoroethyl)phenyl]cyclopropyl}-1,6-dihydropyrimidine-4-carboxamide]
- Ki (human PDE2A1; [4]): 46 nM

Compound: Cc1nc(C(=O)NC2(c3ccc4c(c3)OC(F)(F)O4)CC2)cc(=O)[nH]1 [Example 534, N-[1-(2,2-difluoro-1,3-benzodioxol-5-yl)cyclopropyl]-2-methyl-6-oxo-1,6-dihydropyrimidine-4-carboxamide]
- Ki (human PDE2A1; [4]): 87 nM

Compound: CC(C)(NC(=O)c1cc(=O)[nH]c(-c2ncccn2)n1)c1ccc2c(c1)OC(F)(F)O2 [Example 588, N-[1-(2,2-difluoro-1,3-benzodioxol-5-yl)-1-methylethyl]-6-oxo-1,6-dihydro-2,2′-bipyrimidine-4-carboxamide]
- Ki (human PDE2A1; [4]): 303 nM

Compound: Cc1nc(C(=O)N[C@@H](c2ccc(C(F)F)cc2)C(C)(C)C)cc(=O)[nH]1 [Example 644, N-{(1R)-1-[4-(difluoromethyl)phenyl]-2,2-dimethylpropyl}-2-methyl-6-oxo-1,6-dihydropyrimidine-4-carboxamide]
- Ki (human PDE2A1; [4]): 7.3 nM

Compound: CC(NC(=O)c1cc(=O)[nH]c(-c2ncccn2)n1)c1ccc(C(C)(C)C(F)(F)F)cc1 (single isomer, unassigned) [Example 700, (S)- or (R)-6-oxo-N-(1-(4-(1,1,1-trifluoro-2-methylpropan-2-yl)phenyl)ethyl)-1,6-dihydro-[2,2′-bipyrimidine]-4-carboxamide]
- Ki (human PDE2A1; [4]): > 2960 nM

Compound: CC(C)(C)[C@@H](NC(=O)c1cc(=O)[nH]c(-c2ncccn2)n1)c1ccc(C(F)(F)F)c([N+](=O)[O-])c1 [Example 567, N-{(1R)-2,2-dimethyl-1-[3-nitro-4-(trifluoromethyl)phenyl]propyl}-6-oxo-1,6-dihydro-2,2′-bipyrimidine-4-carboxamide]
- Ki (human PDE2A1; [4]): 49 nM

Compound: Cc1nc(C(=O)NC2(c3ccc(OC(C)(C)C)cc3)CC2)cc(=O)[nH]1 [Example 626, N-[1-(4-tert-butoxyphenyl)cyclopropyl]-2-methyl-6-oxo-1,6-dihydropyrimidine-4-carboxamide]
- Ki (human PDE2A1; [4]): 58 nM

Compound: CC(NC(=O)c1cc(=O)[nH]c(-c2ncccn2)n1)c1ccc(C(C)(C)C(F)(F)F)cc1 (single isomer, unassigned) [Example 701, (R)- or (S)-6-oxo-N-(1-(4-(1,1,1-trifluoro-2-methylpropan-2-yl)phenyl)ethyl)-1,6-dihydro-[2,2′-bipyrimidine]-4-carboxamide]
- Ki (human PDE2A1; [4]): 127 nM

Compound: CC(NC(=O)c1cc(=O)[nH]c(-c2ccccc2)n1)c1ccc(C2(C(F)(F)F)CC2)cc1 (single isomer, unassigned) [Example 691, (R)- or (S)-6-oxo-2-phenyl-N-(1-(4-(1-(trifluoromethyl)cyclopropyl)phenyl)-ethyl)-1,6-dihydropyrimidine-4-carboxamide]
- Ki (human PDE2A1; [4]): 39 nM

Compound: Cc1nc(C(=O)N[C@]2(c3ccc(C(C)C)cc3)C[C@H]2C)cc(=O)[nH]1 (single isomer, unassigned) [Example 665, 2-methyl-N-{2-methyl-1-[4-(1-methylethyl)phenyl]cyclopropyl}-6-oxo-1,6-dihydropyrimidine-4-carboxamide]
- Ki (human PDE2A1; [4]): 4.95 nM

Compound: CCc1nc(C(=O)N[C@](C)(CO)c2ccc(C(F)(F)F)cc2)cc(=O)[nH]1 [Example 638, 2-ethyl-N-{(1S)-2-hydroxy-1-methyl-1-[4-(trifluoromethyl)phenyl]ethyl}-6-oxo-1,6-dihydropyrimidine-4-carboxamide]
- Ki (human PDE2A1; [4]): 12 nM

Compound: Cc1nc(C(=O)NC2(c3ccc(C(F)(F)F)cc3)CC2(C)C)cc(=O)[nH]1 (stereo not shown) [Example 681, N-(2,2-dimethyl-1-(4-(trifluoromethyl)phenyl)cyclopropyl)-2-methyl-6-oxo-1,6-dihydropyrimidine-4-carboxamide]
- Ki (human PDE2A1; [4]): 7 nM

Compound: CC(C)(NC(=O)c1cc(=O)[nH]c(-c2ncccn2)n1)c1ccc(SC(F)(F)F)cc1 [Example 577, N-(1-methyl-1-{4-[(trifluoromethyl)sulfanyl]phenyl}ethyl)-6-oxo-1,6-dihydro-2,2′-bipyrimidine-4-carboxamide]
- Ki (human PDE2A1; [4]): 287 nM
